Data on five compounds can be found in patent US12599560B2, “Lipids and lipid nanoparticle formulations” (Longuide Biopharma Corporation, priority 2023, dated 2026).

SMILES strings stand for the structures.

For one data set, the system named is Delta-S protein. The data set is described as follows: In vivo immunization with Delta Spike mRNA LNP, serum ELISA for specific antibody. Also noted: species or system mice. The following applies: serum after second administration. As for the experimental part: Lipid nanoparticles encapsulating the nucleic acid drugs were prepared according to step 2. The mRNA was replaced with Delta Spike full length mRNA (Shanghai Zhaowei Science and Technology Development Co., Ltd.) and then administered to the mice at a dose of 5 μg per mouse, and on the 14th day after the first immunization, the whole blood of the mice was collected by canthus sampling, and the drug administration was repeated for the second immunization. On the 14th day after the second immunization, the whole blood was collected from mice by canthus sampling. The whole blood was centrifuged at 5000 rcf for 5 mn, and the supernatant was centrifuged at 10000 rcf for 5 min to obtain the serum, which was aliquated into serial tubes and stored in the refrigerator at −20° C.
• 9.2.1 Coating: Add 100 μL of 0.2 μg/100 μL Delta-S protein (Novoprotein Scientific Inc.) dilution solution to each well, and leave it in the refrigerator at 4° C. overnight. • 9.2.2 Washing: Add 200 μL of PBST (PBS buffer solution containing 0.05% Tween-20 at pH 7.4) to each well and wash three times. • 9.2.3 Blocking: Add 200 μL of 5% (w/v) BSA-PBS solution (BSA bovine serum albumin, Bioss Biotechnology Co., Ltd.) to each well, and shake for 2 h at 50 rcf at room temperature using a shaker. • 9.2.4 Washing: Add 200 μL of PBST to each well to wash once. • 9.2.5 Adding samples: Add 100 μL of serum diluted 200 times with PBS (0.5 μL of serum) to each well (for the ELISA titer assay, serum diluted 200 times, 800 times, 3200 times, 12800 times, 51200 times, 204800 times), and shake at room temperature for 2 h at 50 rcf using a shaker. • 9.2.6 Washing: Add 200 μL of PBST into each well for three times. • 9.2.7 Adding detection antibody: Add 100 μL of HRP-labeled goat anti-mouse IgG detection antibody (0.1 μL of antibody master batch) (Sangon Biotech (Shanghai) Co., Ltd.) diluted 1000-fold into each well, and shake at 50 rcf for 1 h at room temperature using a shaker. • 9.2.8 Washing: Add 200 μL of PBST to each well and wash three times. • 9.2.9 Adding TMB (Beijing Solarbio Science & Technology Co., Ltd.): Add 50 μL of TMB mixture with the volume ratio of liquid A:liquid B of 1:1 to each well, and react for 5 mn (ELISA of blood sample I), 7 min 58 sec (ELISA of blood sample II), and react for about 5 min (ELISA titer of blood sample II). • 9.2.10 Adding phosphate (Aladdin Reagent (Shanghai) Co., Ltd.): add 50 μL of 1 mol/L phosphate per well to terminate the reaction. • 9.2.11 Detection: Use multi-function plate reader for detection. 9.3. Neutralization Antibody Levels Detected by Pseudovirus Neutralization Assay • 9.3.1 Cell seeding: 293T-ACE2 cells (Fubio (Suzhou) Biomedical Technology Co., Ltd.) were inoculated with 1×10^5 cells in each well of a 48-well plate at a concentration of 1×10^5 cells in 300 μL of DMEM medium (containing 10% heat-inactivated FBS without bispecific antibody), the 48-well plate was labeled with information such as “number, cell type, number of generations, medium type, date and name”, and then the cells were cultured in a cell culture incubator at 37° C. with 5% CO2 for 18 hours. • 9.3.2 Before the pseudovirus transfection operation, prepare an ice box, re-dissolve the serum to be used on ice, thaw on ice the virus from the −25° C. refrigerator. After thawing, the serum and pseudovirus were flicked homogenously and centrifuged with a palm centrifuge. • 9.3.3 Examine the neutralization antibody with serum diluted in different ratios: use complete culture medium to dilute the pseudovirus (Fubio (Suzhou) Biomedical Technology Co., Ltd.) and mouse serum respectively, mix them well, and then dilute them 40-fold, 100-fold, 250-fold and 625-fold according to the final concentration of the cells of incubation. […]

The nature of data set [1]: Particle size and PDI by dynamic light scattering. It counts as physicochemical. Summed up:
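Lipid nanoparticle solution (about 0.04 mg/mL mRNA) diluted in ultrapure water and particle size measured by dynamic light scattering on a Malvern instrument. Sample then further diluted with water for potential measurement.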

A further data set concerns mice. Kind of data set: In vivo delivery of FLuc-mRNA lipid nanoparticle preparations in mice (IVIS imaging). Also noted: In vivo IVIS / In vivo IVIS (liver) / In vivo IVIS (spleen): unit not given here. The following applies: for in vivo delivery efficiency as compared to the benchmark compound SM102: certain formulations. In a few lines:
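FLuc-mRNA LNPs given intramuscularly into thigh rectus femoris or intravenously via tail vein, about 75 μL per mouse, 3 mice. D-Luciferin (200 μL, 15 mg/mL) injected i.p. 10–15 min before IVIS imaging at set times after dosing.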

The mark [2] stands for this setting: Table 2, LNP formulation with mRNA.
[3] abbreviates: Table 2, IV, whole body scan, molar ratio DMG-PEG2000:DSPC:Chol:Lipid and N/P.
Setting [4] is: Table 4, molar ratio 1.40:11.15:38.95:48.50, N/P 40, IM formulation.
Where [5] appears, read: Table 4, molar ratio 1.50:16.00:34.00:48.50, N/P 55, IV formulation.

As to `CCCCCCOCOCCCCCCOC(=O)C(O)CN(CCN1CCN(CCN(CC(O)C(=O)OCCCCCCOCOCCCCCC)CC(O)C(=O)OCCCCCCOCOCCCCCC)CC1)CCN(CC(O)C(=O)OCCCCCCOCOCCCCCC)CC(O)C(=O)OCCCCCCOCOCCCCCC` (centres unmarked) [Compound L0200], the “OD 450 nm-630 nm” value with Delta-S protein (IV) stood at 1.61. The “Particle size (nm)” value in data set [1] (Table 2, LNP formulation with mRNA, molar ratio 1.00:7.00:57.00:35.00, N/P 35) is listed as 106.93 ± 0.71 nm; in data set [1] (Table 2, LNP formulation with mRNA, molar ratio 1.40:11.15:38.95:48.50, N/P 65), 117.90 ± 0.36 nm; in data set [1] (Table 2, LNP formulation with mRNA, molar ratio 2.00:16.00:22.00:60.00, N/P 35), 104.50 ± 0.26 nm. The PDI amounted to 0.06 ± 0.01 in data set [1] (Table 2, polydispersity value, molar ratio 1.00:7.00:57.00:35.00, N/P 35); 0.08 ± 0.02 in data set [1] (Table 2, polydispersity value, molar ratio 1.40:11.15:38.95:48.50, N/P 65); 0.12 ± 0.01 in data set [1] (Table 2, polydispersity value, molar ratio 2.00:16.00:22.00:60.00, N/P 35). Also, the “In vivo IVIS” value in the data set with mice (Table 2, IM, whole body scan) was 3.08 × 10^5. Besides, in the data set on mice (Table 2), the “in vivo delivery efficiency as compared to the benchmark compound SM102” value is given as “superior in vivo delivery efficiency”.

As for `CCCCCCC(CCCCCC)C(=O)OCCCCCCOC(=O)C(O)CN(CCN1CCN(CCN(CC(O)C(=O)OCCCCCCOC(=O)C(CCCCCC)CCCCCC)CC(O)C(=O)OCCCCCCOC(=O)C(CCCCCC)CCCCCC)CC1)CCN(CC(O)C(=O)OCCCCCCOC(=O)C(CCCCCC)CCCCCC)CC(O)C(=O)OCCCCCCOC(=O)C(CCCCCC)CCCCCC` (centres unmarked) [Compound L0203], the “OD 450 nm-630 nm” value with Delta-S protein (IM) is reported as 1.72. For the same compound, the “Particle size (nm)” value in data set [1] (setting [2]) worked out at 126.73 ± 1.50 nm. Moreover, the PDI in data set [1] (Table 2, polydispersity value) stood at 0.06 ± 0.01. Further, the “In vivo IVIS” value in the data set on mice (Table 2, IM, whole body scan) is on record as 8.01 × 10^7; in the data set with mice (setting [3]) it was 3.89 × 10^8. The “in vivo delivery efficiency as compared to the benchmark compound SM102” value in the data set on mice (Table 2) is recorded as “superior in vivo delivery efficiency”.

Turning to `CCCCCCCCCCCCOC(=O)C(O)CN(CCN1CCN(CCN(CC(O)C(=O)OCCCCCCCCCCCC)CC(O)C(=O)OCCCCCCCCCCCC)CC1)CCN(CC(O)C(=O)OCCCCCCCCCCCC)CC(O)C(=O)OCCCCCCCCCCCC` (centres unmarked) [Compound L0199], the “OD 450 nm-630 nm” value with Delta-S protein (IV) is 1.52. Further, the “Particle size (nm)” value in data set [1] (Table 2, LNP formulation with mRNA, molar ratio 1.40:11.15:38.95:48.50, N/P 40) was determined as 97.65 ± 0.59 nm; in data set [1] (Table 2, LNP formulation with mRNA, molar ratio 2.50:7.00:42.00:48.50, N/P 55) it was 130.00 ± 1.47 nm; in data set [1] (setting [4]), 123.50 ± 0.36 nm; in data set [1] (setting [5]) it was 147.57 ± 1.17 nm. The PDI in data set [1] (Table 2, polydispersity value, molar ratio 1.40:11.15:38.95:48.50, N/P 40) amounted to 0.11 ± 0.01; in data set [1] (Table 2, polydispersity value, molar ratio 2.50:7.00:42.00:48.50, N/P 55) it was 0.12 ± 0.01; in data set [1] (setting [4]), 0.09 ± 0.02; in data set [1] (setting [5]), 0.10 ± 0.02. The “In vivo IVIS” value is given as 2.19 × 10^7 in the data set on mice (Table 2, IM, whole body scan); 1.07 × 10^9 with mice (setting [3]); 5.93 × 10^6 with mice (Table 4, IM); 9.35 × 10^8 in the data set on mice (Table 4, IV). The “in vivo delivery efficiency as compared to the benchmark compound SM102” value with mice (Table 2) is “superior in vivo delivery efficiency”.

For `CCCCCCCCCCCOC(=O)CCCCCN(CCO)CCCCCCCC(=O)OC(CCCCCCCC)CCCCCCCC` [SM-102, reference compound], the “OD 450 nm-630 nm” value in the data set on Delta-S protein (IM) came to 1.64. In addition, the “Particle size (nm)” value in data set [1] (setting [2]) is on record as 81.71 ± 0.49 nm. In data set [1] (Table 2, polydispersity value), this compound registered a PDI of 0.11 ± 0.01. The “In vivo IVIS” value in the data set on mice (setting [3]) is on record as 1.40 × 10^9.

Regarding `CCCCCCC(CCCCCC)C(=O)OCCCCOC(=O)C(O)CN1CCN(CCN(CC(O)C(=O)OCCCCOC(=O)C(CCCCCC)CCCCCC)CC(O)C(=O)OCCCCOC(=O)C(CCCCCC)CCCCCC)CC1` (centres unmarked) [Compound L0186], the “OD 450 nm-630 nm” value with Delta-S protein (IM) worked out at 1.70. The “Particle size (nm)” value in data set [1] (setting [2]) was 89.99 ± 0.58 nm. The PDI in data set [1] (Table 2, polydispersity value) is reported as 0.12 ± 0.00. Besides, the “In vivo IVIS” value is on record as 1.58 × 10^8 in the data set on mice (Table 2, IM, whole body scan) and 2.77 × 10^8 in the data set on mice (setting [3]). For the same compound, the “In vivo IVIS (liver)” value in the data set on mice (Table 2, IV, liver) is 5.61 × 10^7. In addition, the “In vivo IVIS (spleen)” value with mice (Table 2, IV, spleen) is on record as 2.65 × 10^7. For the same compound, the “in vivo delivery efficiency as compared to the benchmark compound SM102” value in the data set on mice (Table 2) is recorded as “superior in vivo delivery efficiency”.
